# Literature values as cited in article PMC10895697 (JAC-Antimicrobial Resistance, 2024).
# Columns and labels:
# S. aureus in osteoblasts = test system: S. aureus in osteoblasts; set-up: method as in PMID 34423360; settings: at 100x its MIC; cited from earlier work
# S. aureus = test system: S. aureus; set-up: method as in ref 11 (Chauvelot et al.); settings: ref 11 (Chauvelot et al.); cited from earlier work
compound,measurement,setting,value
CN[C@H]1C(=O)N[C@@H]2Cc3ccc(cc3)Oc3cc4cc(c3O[C@@H]3O[C@H](C(=O)O)[C@@H](O)[C@H](O)[C@H]3NC(=O)CCCCCCCCC(C)C)Oc3ccc(cc3Cl)[C@@H](O)[C@@H]3NC(=O)[C@H](NC(=O)[C@@H]4NC(=O)[C@@H](NC2=O)c2cc(cc(O)c2Cl)Oc2cc1ccc2O)c1ccc(O)c(c1)-c1c(O[C@H]2O[C@H](CO)[C@@H](O)[C@H](O)[C@@H]2O)cc(O)cc1[C@@H](C(=O)NCCCN(C)C)NC3=O [dalbavancin],peak of reduction of S. aureus in osteoblasts,S. aureus in osteoblasts,51.6%
same,MIC,S. aureus,0.125 µg/mL
